Source: ChEMBL document CHEMBL3352227, “Synthesis, antimycobacterial and antibacterial evaluation of l-[(1R, 2S)-2-fluorocyclopropyl]fluoroquinolone derivatives containing an oxime functional moiety” (Eur J Med Chem, 2014)
In brackets after ≈: the same amount, converted by molar mass.

What was measured:
Format in all cases: functional
[1] = tested on: Escherichia coli; assay: Antibacterial activity against extended-spectrum beta-lactamase producing Escherichia coli 12-15 after 18 to 24 hrs by standard twofold serial dilution method
[2] = tested on: Klebsiella pneumoniae; assay: Antibacterial activity against Klebsiella pneumoniae 12-4 after 18 to 24 hrs by standard twofold serial dilution method
[3] = tested on: Staphylococcus epidermidis; assay: Antibacterial activity against methicillin-resistant Staphylococcus epidermidis 12-1 after 18 to 24 hrs by standard twofold serial dilution method
[4] = tested on: Escherichia coli; assay: Antibacterial activity against Escherichia coli 12-1 after 18 to 24 hrs by standard twofold serial dilution method
[5] = tested on: Staphylococcus aureus; assay: Antibacterial activity against Staphylococcus aureus ATCC 25923 after 18 to 24 hrs by standard twofold serial dilution method
[6] = tested on: Staphylococcus aureus; assay: Antibacterial activity against methicillin-resistant Staphylococcus aureus 12-4 after 18 to 24 hrs by standard twofold serial dilution method
[7] = tested on: Staphylococcus aureus; assay: Antibacterial activity against methicillin-sensitive Staphylococcus aureus 12-5 after 18 to 24 hrs by standard twofold serial dilution method
[8] = tested on: Staphylococcus aureus; assay: Antibacterial activity against methicillin-sensitive Staphylococcus aureus 12-4 after 18 to 24 hrs by standard twofold serial dilution method
[9] = tested on: Pseudomonas aeruginosa; assay: Antibacterial activity against Pseudomonas aeruginosa 12-14 after 18 to 24 hrs by standard twofold serial dilution method
[10] = tested on: Escherichia coli; assay: Antibacterial activity against extended-spectrum beta-lactamase producing Escherichia coli 12-14 after 18 to 24 hrs by standard twofold serial dilution method
[11] = tested on: Klebsiella pneumoniae; assay: Antibacterial activity against Klebsiella pneumoniae 12-2 after 18 to 24 hrs by standard twofold serial dilution method
[12] = tested on: Staphylococcus aureus; assay: Antibacterial activity against methicillin-resistant Staphylococcus aureus 12-5 after 18 to 24 hrs by standard twofold serial dilution method
[13] = tested on: Staphylococcus aureus; assay: Antibacterial activity against methicillin-sensitive Staphylococcus aureus 12-1 after 18 to 24 hrs by standard twofold serial dilution method
[14] = tested on: Staphylococcus aureus; assay: Antibacterial activity against methicillin-resistant Staphylococcus aureus 12-2 after 18 to 24 hrs by standard twofold serial dilution method
[15] = tested on: Streptococcus pneumoniae; assay: Antibacterial activity against Streptococcus pneumoniae ATCC 49619 after 18 to 24 hrs by standard twofold serial dilution method
[16] = tested on: Klebsiella pneumoniae; assay: Antibacterial activity against extended-spectrum beta-lactamase producin Klebsiella pneumoniae 12-3 after 18 to 24 hrs by standard twofold serial dilution method
[17] = tested on: Escherichia coli; assay: Antibacterial activity against extended-spectrum beta-lactamase producing Escherichia coli 12-2 after 18 to 24 hrs by standard twofold serial dilution method
[18] = tested on: Escherichia coli; assay: Antibacterial activity against extended-spectrum beta-lactamase producing Escherichia coli 12-3 after 18 to 24 hrs by standard twofold serial dilution method
[19] = tested on: Klebsiella pneumoniae; assay: Antibacterial activity against extended-spectrum beta-lactamase producin Klebsiella pneumoniae 12-14 after 18 to 24 hrs by standard twofold serial dilution method
[20] = tested on: Staphylococcus epidermidis; assay: Antibacterial activity against methicillin-sensitive Staphylococcus epidermidis 12-1 after 18 to 24 hrs by standard twofold serial dilution method
[21] = tested on: Streptococcus pneumoniae; assay: Antibacterial activity against Streptococcus pneumoniae 12-18 after 18 to 24 hrs by standard twofold serial dilution method
[22] = tested on: Klebsiella pneumoniae; assay: Antibacterial activity against Klebsiella pneumoniae 12-1 after 18 to 24 hrs by standard twofold serial dilution method
[23] = tested on: Klebsiella pneumoniae; assay: Antibacterial activity against extended-spectrum beta-lactamase producin Klebsiella pneumoniae 12-7 after 18 to 24 hrs by standard twofold serial dilution method
[24] = tested on: Escherichia coli; assay: Antibacterial activity against Escherichia coli ATCC 25922 after 18 to 24 hrs by standard twofold serial dilution method
[25] = tested on: Mycobacterium tuberculosis; assay: Antimycobacterial activity against Mycobacterium tuberculosis H37Rv ATCC 27294 by MABA method
[26] = tested on: Staphylococcus epidermidis; assay: Antibacterial activity against methicillin-sensitive Staphylococcus epidermidis 12-3 after 18 to 24 hrs by standard twofold serial dilution method
[27] = tested on: Staphylococcus aureus; assay: Antibacterial activity against methicillin-sensitive Staphylococcus aureus 12-2 after 18 to 24 hrs by standard twofold serial dilution method
[28] = tested on: Klebsiella pneumoniae; assay: Antibacterial activity against extended-spectrum beta-lactamase producin Klebsiella pneumoniae 12-4 after 18 to 24 hrs by standard twofold serial dilution method
[29] = tested on: Pseudomonas aeruginosa; assay: Antibacterial activity against Pseudomonas aeruginosa 12-12 after 18 to 24 hrs by standard twofold serial dilution method
[30] = tested on: Staphylococcus epidermidis; assay: Antibacterial activity against methicillin-sensitive Staphylococcus epidermidis 12-8 after 18 to 24 hrs by standard twofold serial dilution method
[31] = tested on: Staphylococcus epidermidis; assay: Antibacterial activity against methicillin-sensitive Staphylococcus epidermidis 12-6 after 18 to 24 hrs by standard twofold serial dilution method
[32] = tested on: Staphylococcus epidermidis; assay: Antibacterial activity against methicillin-resistant Staphylococcus epidermidis 12-6 after 18 to 24 hrs by standard twofold serial dilution method

SMILES | MIC [1] [µg/mL] | MIC [2] [µg/mL] | MIC [3] [µg/mL] | MIC [4] [µg/mL] | MIC [5] [µg/mL] | MIC [6] [µg/mL] | MIC [7] [µg/mL] | MIC [8] [µg/mL] | MIC [9] [µg/mL] | MIC [10] [µg/mL] | MIC [11] [µg/mL] | MIC [12] [µg/mL] | MIC [13] [µg/mL] | MIC [14] [µg/mL] | MIC [15] [µg/mL] | MIC [16] [µg/mL] | MIC [17] [µg/mL] | MIC [18] [µg/mL] | MIC [19] [µg/mL] | MIC [20] [µg/mL] | also measured
CO/N=C1/CN(c2nc3c(cc2F)c(=O)c(C(=O)O)cn3[C@@H]2C[C@@H]2F)[C@@H]1CN | > 128 | 0.5 (≈ 1.27 µM) | 64 (≈ 163 µM) | 2 (≈ 5.08 µM) | 0.25 (≈ 0.636 µM) | > 128 | 0.5 (≈ 1.27 µM) | 0.5 (≈ 1.27 µM) | 128 (≈ 325 µM) | > 128 | 0.5 (≈ 1.27 µM) | > 128 | 1 (≈ 2.54 µM) | > 128 | 1 (≈ 2.54 µM) | > 128 | > 128 | 16 (≈ 40.7 µM) | 128 (≈ 325 µM) | 0.5 (≈ 1.27 µM) | MIC [21]: 4 µg/mL (≈ 10.2 µM); MIC [22]: 1 µg/mL (≈ 2.54 µM); MIC [23]: 4 µg/mL (≈ 10.2 µM); MIC [24]: 0.25 µg/mL (≈ 0.636 µM); MIC [25]: 4 µg/mL (≈ 10.2 µM); MIC [26]: 0.5 µg/mL (≈ 1.27 µM); MIC [27]: 0.5 µg/mL (≈ 1.27 µM); MIC [28]: 16 µg/mL (≈ 40.7 µM); MIC [29]: 2 µg/mL (≈ 5.08 µM); MIC [30]: 32 µg/mL (≈ 81.4 µM); MIC [31]: 0.5 µg/mL (≈ 1.27 µM); MIC [32]: 64 µg/mL (≈ 163 µM)
NCC1CN(c2cc3c(cc2F)c(=O)c(C(=O)O)cn3[C@@H]2C[C@@H]2F)C/C1=N/OCc1ccccc1 (stereo partly specified) | 64 (≈ 133 µM) | 0.25 (≈ 0.518 µM) | 1 (≈ 2.07 µM) | 0.06 (≈ 0.124 µM) | < 0.008 | 8 (≈ 16.6 µM) | 0.06 (≈ 0.124 µM) | 0.06 (≈ 0.124 µM) | 1 (≈ 2.07 µM) | 16 (≈ 33.2 µM) | 0.25 (≈ 0.518 µM) | 4 (≈ 8.29 µM) | 0.06 (≈ 0.124 µM) | 4 (≈ 8.29 µM) | 0.06 (≈ 0.124 µM) | 16 (≈ 33.2 µM) | 64 (≈ 133 µM) | 32 (≈ 66.3 µM) | 64 (≈ 133 µM) | 0.125 (≈ 0.259 µM) | MIC [21]: 0.25 µg/mL (≈ 0.518 µM); MIC [22]: 0.06 µg/mL (≈ 0.124 µM); MIC [23]: 16 µg/mL (≈ 33.2 µM); MIC [24]: 0.06 µg/mL (≈ 0.124 µM); MIC [25]: 0.25 µg/mL (≈ 0.518 µM); MIC [26]: 0.125 µg/mL (≈ 0.259 µM); MIC [27]: < 0.008 µg/mL; MIC [28]: 16 µg/mL (≈ 33.2 µM); MIC [29]: 1 µg/mL (≈ 2.07 µM); MIC [30]: 0.125 µg/mL (≈ 0.259 µM); MIC [31]: 0.06 µg/mL (≈ 0.124 µM); MIC [32]: 0.5 µg/mL (≈ 1.04 µM)
NCC1CN(c2c(F)cc3c(=O)c(C(=O)O)cn([C@@H]4C[C@@H]4F)c3c2Cl)C/C1=N/OCc1ccccc1 (stereo partly specified) | > 128 | 2 (≈ 3.87 µM) | 0.5 (≈ 0.967 µM) | 32 (≈ 61.9 µM) | 0.25 (≈ 0.484 µM) | 0.5 (≈ 0.967 µM) | 0.5 (≈ 0.967 µM) | 0.25 (≈ 0.484 µM) | 64 (≈ 124 µM) | > 128 | 2 (≈ 3.87 µM) | 0.5 (≈ 0.967 µM) | 0.5 (≈ 0.967 µM) | 0.5 (≈ 0.967 µM) | 1 (≈ 1.93 µM) | > 128 | > 128 | 32 (≈ 61.9 µM) | > 128 | 0.5 (≈ 0.967 µM) | MIC [21]: 8 µg/mL (≈ 15.5 µM); MIC [22]: 2 µg/mL (≈ 3.87 µM); MIC [23]: 16 µg/mL (≈ 31 µM); MIC [24]: 0.5 µg/mL (≈ 0.967 µM); MIC [25]: 16 µg/mL (≈ 31 µM); MIC [26]: 1 µg/mL (≈ 1.93 µM); MIC [27]: 0.5 µg/mL (≈ 0.967 µM); MIC [28]: 32 µg/mL (≈ 61.9 µM); MIC [29]: 8 µg/mL (≈ 15.5 µM); MIC [30]: 64 µg/mL (≈ 124 µM); MIC [31]: 0.5 µg/mL (≈ 0.967 µM); MIC [32]: 64 µg/mL (≈ 124 µM)
